Experimental data as given in ChEMBL document CHEMBL4507318, “Data for DCP probe BAY-985” (2021).

How the values were obtained:
[1] = test system: Phosphatidylinositol 4,5-bisphosphate 3-kinase catalytic subunit alpha isoform (Homo sapiens), P42336 [E545K]
[2] = target: Platelet-derived growth factor receptor beta (Homo sapiens) (UniProt P09619)
[3] = target: Dual specificity tyrosine-phosphorylation-regulated kinase 2 (Homo sapiens) (UniProt Q92630)
[4] = target: Serine/threonine-protein kinase RIO3 (Homo sapiens) (UniProt O14730)
[5] = target: Macrophage colony-stimulating factor 1 receptor (Homo sapiens) (UniProt P07333)
[6] = target: Histamine H1 receptor (Homo sapiens) (UniProt P35367); conditions: Compound concentration 10.0 uM
[7] = target: Tyrosine-protein kinase ITK/TSK (Homo sapiens) (UniProt Q08881)
[8] = target: Serine/threonine-protein kinase TAO3 (Homo sapiens) (UniProt Q9H2K8)
[9] = target: Tyrosine-protein kinase ABL1 (Homo sapiens) (UniProt P00519)
[10] = target: Tyrosine-protein kinase FRK (Homo sapiens) (UniProt P42685)
[11] = target: Ribosomal protein S6 kinase alpha-1 (Homo sapiens) (UniProt Q15418)
[12] = target: GABA-A receptor; anion channel (Rattus norvegicus) (UniProt O09028+P15431+P18506+P18508+P19969+P20236+P23574+P23576+P28471+P28473+P30191+P62813+P63079+P63138+Q91ZM7+Q9ES14); conditions: Compound concentration 10.0 uM
[13] = target: Ribosomal protein S6 kinase alpha-6 (Homo sapiens) (UniProt Q9UK32)
[14] = target: Mitogen-activated protein kinase kinase kinase 2 (Homo sapiens) (UniProt Q9Y2U5)
[15] = target: Histamine H3 receptor (Homo sapiens) (UniProt Q9Y5N1); conditions: Compound concentration 10.0 uM
[16] = target: Death-associated protein kinase 3 (Homo sapiens) (UniProt O43293)
[17] = target: 1-phosphatidylinositol 3-phosphate 5-kinase (Homo sapiens) (UniProt Q9Y2I7)
[18] = target: Serine/threonine-protein kinase 16 (Homo sapiens) (UniProt O75716)
[19] = target: Mitogen-activated protein kinase 10 (Homo sapiens) (UniProt P53779)
[20] = target: Calcium/calmodulin-dependent protein kinase kinase 2 (Homo sapiens) (UniProt Q96RR4)
[21] = test system: ALK tyrosine kinase receptor (Homo sapiens), Q9UM73 [L1196M]
[22] = target: LIM domain kinase 2 (Homo sapiens) (UniProt P53671)
[23] = target: Mitogen-activated protein kinase kinase kinase 20 (Homo sapiens) (UniProt Q9NYL2)
[24] = target: Casein kinase I isoform delta (Homo sapiens) (UniProt P48730)
[25] = target: Ephrin type-A receptor 2 (Homo sapiens) (UniProt P29317)
[26] = target: Phosphatidylinositol 3-kinase catalytic subunit type 3 (Homo sapiens) (UniProt Q8NEB9)
[27] = target: Serine/threonine-protein kinase STK11 (Homo sapiens) (UniProt Q15831)
[28] = target: Serine/threonine-protein kinase Sgk2 (Homo sapiens) (UniProt Q9HBY8)
[29] = target: Serine/threonine-protein kinase MARK1 (Homo sapiens) (UniProt Q9P0L2)
[30] = target: Calcium/calmodulin-dependent protein kinase type II subunit delta (Homo sapiens) (UniProt Q13557)
[31] = target: Peripheral plasma membrane protein CASK (Homo sapiens) (UniProt O14936)
[32] = test system: Mast/stem cell growth factor receptor Kit (Homo sapiens), P10721 [V559D]
[33] = target: Protein kinase C theta type (Homo sapiens) (UniProt Q04759)
[34] = target: Receptor-interacting serine/threonine-protein kinase 1 (Homo sapiens) (UniProt Q13546)
[35] = target: STE20/SPS1-related proline-alanine-rich protein kinase (Homo sapiens) (UniProt Q9UEW8)
[36] = target: Aurora kinase C (Homo sapiens) (UniProt Q9UQB9)
[37] = target: Cyclin-dependent kinase 17 (Homo sapiens) (UniProt Q00537)
[38] = target: Ephrin type-A receptor 8 (Homo sapiens) (UniProt P29322)
[39] = target: Histamine H2 receptor (Homo sapiens) (UniProt P25021); conditions: Compound concentration 10.0 uM
[40] = target: 5-hydroxytryptamine receptor 5A (Homo sapiens) (UniProt P47898); conditions: Compound concentration 10.0 uM
[41] = target: SRSF protein kinase 2 (Homo sapiens) (UniProt P78362)
[42] = target: Serine/threonine-protein kinase LATS1 (Homo sapiens) (UniProt O95835)
[43] = target: Vascular endothelial growth factor receptor 3 (Homo sapiens) (UniProt P35916)
[44] = target: 5-hydroxytryptamine receptor 2B (Homo sapiens, UniProt P41595); conditions: Compound concentration 10.0 uM
[45] = Compound concentration 1000.0 nM
[46] = Compound concentration 100.0 nM

Sequence of Tyrosine-protein kinase ITK/TSK (Homo sapiens) (Q08881 whole entry): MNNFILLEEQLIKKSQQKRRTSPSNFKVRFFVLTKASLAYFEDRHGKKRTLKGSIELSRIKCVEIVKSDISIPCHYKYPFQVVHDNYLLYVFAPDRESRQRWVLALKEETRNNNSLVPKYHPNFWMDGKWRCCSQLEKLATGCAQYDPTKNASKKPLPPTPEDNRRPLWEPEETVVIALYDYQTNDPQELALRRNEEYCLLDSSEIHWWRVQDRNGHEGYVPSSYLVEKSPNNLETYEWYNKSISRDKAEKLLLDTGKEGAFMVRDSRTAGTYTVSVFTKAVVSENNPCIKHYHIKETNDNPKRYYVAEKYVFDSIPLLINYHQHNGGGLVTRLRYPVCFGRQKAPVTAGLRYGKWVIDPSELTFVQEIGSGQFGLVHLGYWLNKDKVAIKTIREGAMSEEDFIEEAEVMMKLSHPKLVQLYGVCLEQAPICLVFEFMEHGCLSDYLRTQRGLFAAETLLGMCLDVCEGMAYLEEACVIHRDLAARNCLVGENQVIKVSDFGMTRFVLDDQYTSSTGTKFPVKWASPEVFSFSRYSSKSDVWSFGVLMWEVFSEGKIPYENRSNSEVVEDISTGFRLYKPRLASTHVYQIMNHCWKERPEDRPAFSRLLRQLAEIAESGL
Sequence of Calcium/calmodulin-dependent protein kinase type II subunit delta (Homo sapiens) (Q13557 whole entry): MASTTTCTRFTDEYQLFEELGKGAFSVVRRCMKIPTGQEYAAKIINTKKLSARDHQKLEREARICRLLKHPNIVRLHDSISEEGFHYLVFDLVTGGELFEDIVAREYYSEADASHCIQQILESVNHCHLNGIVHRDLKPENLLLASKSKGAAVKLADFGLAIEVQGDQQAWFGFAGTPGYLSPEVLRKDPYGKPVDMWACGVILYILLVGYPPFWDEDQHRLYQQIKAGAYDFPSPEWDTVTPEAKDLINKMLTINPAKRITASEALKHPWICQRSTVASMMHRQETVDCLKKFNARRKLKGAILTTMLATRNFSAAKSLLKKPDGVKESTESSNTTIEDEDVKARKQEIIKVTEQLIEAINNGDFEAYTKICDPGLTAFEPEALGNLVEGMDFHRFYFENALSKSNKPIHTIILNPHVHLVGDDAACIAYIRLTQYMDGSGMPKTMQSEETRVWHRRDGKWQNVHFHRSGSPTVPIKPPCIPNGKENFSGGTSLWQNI
Sequence of Ephrin type-A receptor 2 (Homo sapiens) (P29317 whole entry): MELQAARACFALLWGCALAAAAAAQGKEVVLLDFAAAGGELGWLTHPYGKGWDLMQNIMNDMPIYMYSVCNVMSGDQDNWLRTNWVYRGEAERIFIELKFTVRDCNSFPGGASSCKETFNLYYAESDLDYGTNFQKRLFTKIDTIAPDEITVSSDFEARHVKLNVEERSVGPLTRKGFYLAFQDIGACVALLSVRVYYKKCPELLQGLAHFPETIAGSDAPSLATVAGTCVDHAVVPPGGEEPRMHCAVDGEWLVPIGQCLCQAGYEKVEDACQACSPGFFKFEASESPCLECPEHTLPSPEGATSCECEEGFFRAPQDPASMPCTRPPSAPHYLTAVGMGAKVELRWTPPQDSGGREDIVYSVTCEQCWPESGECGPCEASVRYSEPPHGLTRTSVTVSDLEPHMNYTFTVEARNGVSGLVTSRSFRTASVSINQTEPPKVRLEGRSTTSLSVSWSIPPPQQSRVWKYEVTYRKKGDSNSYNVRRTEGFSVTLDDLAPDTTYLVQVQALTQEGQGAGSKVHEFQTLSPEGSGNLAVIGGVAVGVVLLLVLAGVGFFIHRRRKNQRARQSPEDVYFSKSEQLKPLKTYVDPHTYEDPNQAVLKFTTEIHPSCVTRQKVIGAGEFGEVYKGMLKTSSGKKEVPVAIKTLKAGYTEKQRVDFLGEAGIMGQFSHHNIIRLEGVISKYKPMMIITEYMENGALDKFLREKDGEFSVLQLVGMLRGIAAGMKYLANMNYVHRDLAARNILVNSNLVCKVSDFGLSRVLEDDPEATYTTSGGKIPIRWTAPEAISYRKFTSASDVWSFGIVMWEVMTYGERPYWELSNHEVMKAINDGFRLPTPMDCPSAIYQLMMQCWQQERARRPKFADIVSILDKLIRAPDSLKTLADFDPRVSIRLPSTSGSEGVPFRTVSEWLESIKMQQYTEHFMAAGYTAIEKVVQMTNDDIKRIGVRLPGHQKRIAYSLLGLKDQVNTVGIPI
Sequence of Macrophage colony-stimulating factor 1 receptor (Homo sapiens) (P07333 whole entry): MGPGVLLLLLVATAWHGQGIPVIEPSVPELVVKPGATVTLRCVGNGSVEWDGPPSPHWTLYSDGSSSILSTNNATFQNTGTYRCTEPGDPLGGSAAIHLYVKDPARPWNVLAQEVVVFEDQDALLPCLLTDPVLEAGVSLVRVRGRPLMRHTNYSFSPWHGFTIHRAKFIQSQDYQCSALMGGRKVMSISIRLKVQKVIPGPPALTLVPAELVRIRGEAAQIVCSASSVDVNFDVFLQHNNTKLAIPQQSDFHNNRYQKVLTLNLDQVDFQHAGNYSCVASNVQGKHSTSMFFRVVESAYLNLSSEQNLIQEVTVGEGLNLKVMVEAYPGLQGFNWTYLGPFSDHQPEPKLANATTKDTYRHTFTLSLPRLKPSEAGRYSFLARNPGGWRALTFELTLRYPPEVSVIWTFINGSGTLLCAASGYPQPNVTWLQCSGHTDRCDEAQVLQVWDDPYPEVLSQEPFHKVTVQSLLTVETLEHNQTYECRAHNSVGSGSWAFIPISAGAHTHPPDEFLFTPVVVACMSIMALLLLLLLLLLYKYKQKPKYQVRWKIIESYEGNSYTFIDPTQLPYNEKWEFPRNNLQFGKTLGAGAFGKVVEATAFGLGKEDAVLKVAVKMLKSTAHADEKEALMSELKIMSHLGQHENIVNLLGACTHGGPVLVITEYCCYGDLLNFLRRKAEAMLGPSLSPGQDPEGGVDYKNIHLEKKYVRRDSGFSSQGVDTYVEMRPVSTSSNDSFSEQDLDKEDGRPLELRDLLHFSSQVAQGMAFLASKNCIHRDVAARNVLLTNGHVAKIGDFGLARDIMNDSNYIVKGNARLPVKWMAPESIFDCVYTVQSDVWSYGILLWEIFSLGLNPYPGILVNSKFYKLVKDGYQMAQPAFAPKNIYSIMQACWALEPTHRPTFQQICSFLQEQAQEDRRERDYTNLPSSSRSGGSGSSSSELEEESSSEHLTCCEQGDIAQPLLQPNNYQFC
Sequence of LIM domain kinase 2 (Homo sapiens) (P53671 whole entry, looked up, the tested form may be a part): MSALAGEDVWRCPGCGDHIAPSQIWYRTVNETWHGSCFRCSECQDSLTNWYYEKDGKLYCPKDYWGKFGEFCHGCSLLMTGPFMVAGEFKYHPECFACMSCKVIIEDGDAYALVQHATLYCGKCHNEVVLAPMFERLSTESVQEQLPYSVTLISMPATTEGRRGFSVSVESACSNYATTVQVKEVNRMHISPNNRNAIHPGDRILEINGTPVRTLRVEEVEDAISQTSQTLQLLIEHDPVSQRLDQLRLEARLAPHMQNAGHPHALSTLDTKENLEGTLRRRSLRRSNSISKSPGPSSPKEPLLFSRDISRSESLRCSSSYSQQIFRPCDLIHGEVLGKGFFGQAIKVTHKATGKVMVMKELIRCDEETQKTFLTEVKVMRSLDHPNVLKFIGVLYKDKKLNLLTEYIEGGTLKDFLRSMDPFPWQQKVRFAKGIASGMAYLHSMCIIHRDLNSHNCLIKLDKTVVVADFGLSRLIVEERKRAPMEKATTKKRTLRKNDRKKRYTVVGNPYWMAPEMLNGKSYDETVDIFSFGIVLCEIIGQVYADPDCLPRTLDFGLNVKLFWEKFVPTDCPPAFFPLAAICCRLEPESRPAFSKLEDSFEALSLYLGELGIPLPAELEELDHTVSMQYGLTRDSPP
Sequence of Mitogen-activated protein kinase kinase kinase 2 (Homo sapiens) (Q9Y2U5 whole entry): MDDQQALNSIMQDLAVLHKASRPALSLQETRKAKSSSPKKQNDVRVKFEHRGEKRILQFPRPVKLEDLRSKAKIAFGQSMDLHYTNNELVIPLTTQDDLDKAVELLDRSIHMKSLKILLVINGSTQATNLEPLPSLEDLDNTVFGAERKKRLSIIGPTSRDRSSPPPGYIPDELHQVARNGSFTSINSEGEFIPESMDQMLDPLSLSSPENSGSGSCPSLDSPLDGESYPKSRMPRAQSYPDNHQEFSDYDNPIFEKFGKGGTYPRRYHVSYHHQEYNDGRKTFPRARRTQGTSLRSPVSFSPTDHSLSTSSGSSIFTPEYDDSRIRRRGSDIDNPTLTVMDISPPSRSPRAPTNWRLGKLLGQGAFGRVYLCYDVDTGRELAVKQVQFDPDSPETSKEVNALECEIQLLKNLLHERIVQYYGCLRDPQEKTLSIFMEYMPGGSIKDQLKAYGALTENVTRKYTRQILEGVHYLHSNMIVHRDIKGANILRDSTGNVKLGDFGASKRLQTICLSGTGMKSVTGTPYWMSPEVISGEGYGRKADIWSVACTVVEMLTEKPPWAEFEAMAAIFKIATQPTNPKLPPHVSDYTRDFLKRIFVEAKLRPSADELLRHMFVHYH
Sequence of Ribosomal protein S6 kinase alpha-6 (Homo sapiens) (Q9UK32 whole entry): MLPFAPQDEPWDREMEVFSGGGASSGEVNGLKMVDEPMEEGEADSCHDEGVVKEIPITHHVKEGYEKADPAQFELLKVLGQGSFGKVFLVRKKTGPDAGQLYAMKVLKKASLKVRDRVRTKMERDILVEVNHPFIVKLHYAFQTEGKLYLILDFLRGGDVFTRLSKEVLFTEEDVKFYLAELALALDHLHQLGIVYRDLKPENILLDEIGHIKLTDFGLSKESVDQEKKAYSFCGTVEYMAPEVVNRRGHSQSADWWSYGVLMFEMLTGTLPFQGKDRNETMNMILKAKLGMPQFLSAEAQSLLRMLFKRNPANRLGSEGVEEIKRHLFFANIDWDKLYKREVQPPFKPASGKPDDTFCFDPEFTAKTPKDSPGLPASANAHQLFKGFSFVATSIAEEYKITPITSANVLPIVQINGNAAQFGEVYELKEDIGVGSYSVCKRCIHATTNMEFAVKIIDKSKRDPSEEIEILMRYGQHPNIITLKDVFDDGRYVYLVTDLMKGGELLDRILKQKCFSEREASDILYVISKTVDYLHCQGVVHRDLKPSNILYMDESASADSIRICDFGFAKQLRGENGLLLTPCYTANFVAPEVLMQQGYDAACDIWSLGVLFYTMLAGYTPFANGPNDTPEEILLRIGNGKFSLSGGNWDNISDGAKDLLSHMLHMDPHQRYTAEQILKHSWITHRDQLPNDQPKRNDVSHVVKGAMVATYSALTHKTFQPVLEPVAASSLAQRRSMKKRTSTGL

CN(C)c1ncnc(-c2ccc3nc(Nc4cc(CN5CCN(C(=O)CC(F)(F)F)CC5)ccn4)[nH]c3c2)c1Cl [BAY-440]
inactive: residual activity [1, 45] 76% | residual activity [2, 45] 100% | residual activity [3, 45] 81% | residual activity [4, 45] 92% | residual activity [5, 45] 50% | inhibition [6] 26.4% | residual activity [7, 45] 100% | residual activity [10, 45] 85% | residual activity [11, 45] 98% | inhibition [12] 14% | residual activity [13, 45] 84% | residual activity [14, 45] 78% | inhibition [15] 4.68% | residual activity [16, 45] 99% | residual activity [17, 45] 81% | residual activity [18, 45] 100% | residual activity [19, 45] 51% | residual activity [20, 45] 88% | residual activity [21, 45] 79% | residual activity [22, 45] 100% | residual activity [23, 45] 65% | residual activity [24, 45] 83% | residual activity [25, 45] 100% | residual activity [26, 45] 100% | residual activity [27, 45] 99% | residual activity [29, 45] 100% | residual activity [30, 45] 90% | residual activity [31, 45] 89% | residual activity [32, 45] 75% | residual activity [33, 45] 100% | residual activity [34, 45] 93% | residual activity [35, 45] 69% | residual activity [36, 45] 100% | residual activity [37, 45] 100% | residual activity [38, 45] 100% | inhibition [39] 32.6% | inhibition [40] 23.6% | residual activity [41, 45] 76% | residual activity [42, 45] 95% | residual activity [43, 45] 63% | inhibition [44] 39%
active: residual activity [8, 45] 33% | residual activity [9, 45] 26% | residual activity [28, 45] 43%

C[C@H](c1ccnc(Nc2nc3ccc(-c4cc(N(C)C)ncn4)cc3[nH]2)c1)N1CCN(C(=O)CC(F)(F)F)CC1 [BAY-985]
active: residual activity [8, 46] 41% | inhibition [44] 60%
inactive: residual activity [1, 46] 100% | residual activity [2, 46] 82% | residual activity [3, 46] 87% | residual activity [4, 46] 97% | residual activity [5, 46] 90% | inhibition [6] 35% | residual activity [7, 46] 100% | residual activity [9, 46] 89% | residual activity [10, 46] 92% | residual activity [11, 46] 82% | inhibition [12] 5.57% | residual activity [13, 46] 97% | residual activity [14, 46] 100% | inhibition [15] -3.83% | residual activity [16, 46] 90% | residual activity [17, 46] 100% | residual activity [18, 46] 86% | residual activity [19, 46] 81% | residual activity [20, 46] 77% | residual activity [21, 46] 100% | residual activity [22, 46] 88% | residual activity [23, 46] 98% | residual activity [24, 46] 89% | residual activity [25, 46] 100% | residual activity [26, 46] 100% | residual activity [27, 46] 100% | residual activity [28, 46] 100% | residual activity [29, 46] 100% | residual activity [30, 46] 70% | residual activity [31, 46] 100% | residual activity [32, 46] 99% | residual activity [33, 46] 100% | residual activity [34, 46] 95% | residual activity [35, 46] 100% | residual activity [36, 46] 100% | residual activity [37, 46] 100% | residual activity [38, 46] 100% | inhibition [39] 3.55% | inhibition [40] 11.9% | residual activity [41, 46] 100% | residual activity [42, 46] 100% | residual activity [43, 46] 92%
